Assay results published in US10781183B2, “Small molecule inducers of reactive oxygen species and inhibitors of mitochondrial activity” (The Regents of the University of Michigan, priority 2016, dated 2020).

Tested on: mtDNA content in MiaPaCa-2 cells
Experiment: Measurement of mtDNA content by qPCR
Format: cell-based
Details: MiaPaCa-2 (FIG. 11C)
Method: To assess mtDNA content, genomic DNA was isolated with QIAamp® DNA mini kit (Qiagen, Germantown, Md.) from MiaPaCa-2 cells. The mtDNA content was evaluated by co-amplifying a DNA fragment encoding mitochondrial 12S rRNA (forward primer: 5′-[…]-3′; reverse primer: 5′-TGCGCTTACTTTGTAG CCTTCAT-3′) and a DNA fragment encoding the nuclear 18S rRNA (forward primer: 5′-CCCTGCC CTTTGTACACACC-3′; reverse primer: 5′-GATCCGAGGGCCTCACTA-3′). (Vadrot et al., 2012) Real-time qPCR was performed on Viia7 cycler (Applied Biosystems). Amplifications were monitored and analyzed by measuring the intercalation of the fluorescent dye from Fast SYBR® Green Master Mix (Applied Biosystems). Relative mtDNA contents were calculated using 18S rRNA as gene reference.

SMILES: O=C1C(Nc2ccc(-c3ccccc3)cc2)=CC(=O)c2ncncc21 [QD325, 6-([1,1′-biphenyl]-4-ylamino)quinazoline-5,8-dione]
- relative levels of mtDNA over time: decreased time dependently
